Laboratory results taken from paper PMC8162438, “Cancer cell-selective modulation of mitochondrial respiration and metabolism by potent organogold(III) dithiocarbamates” (Chemical Science, 2020).

System: MDA-MB-231
Experiment: Cell cycle analysis by flow cytometry (PI)
Type: cell-based
Settings: MDA-MB-231, 0.1 μM
Procedure: The effect of 2a on cell cycle was studied by flow cytometry. We observed a time-dependent increase in G0/G1 cell cycle population over 24–72 h period. […] There are several small molecule drug candidates in clinical trials as inhibitors of CDK4/6 and induce G1 cell cycle arrest.[107–110] Thus, our finding is relevant for the design of gold based therapies for refractory tumors such as TNBC.[107–110] After 24 h, a 10% increase can be seen for G1 cell population as well as a 6% decrease in S phase in comparison to the control (Fig. 12B and C). […] The mitochondria control cellular ATP production, it is therefore possible that inhibition of mitochondria respiration and consequently low ATP levels lead to cell cycle arrest.[112–114] […]
with a final volume of 100 µL and incubated overnight at 37 °C. Compound 2a was prepared as a stock in DMSO and diluted to a working concentration of 200 µM with Seahorse XF96 assay buffer and then subsequently serial diluted by 3x to achieve multiple concentrations. The assay was performed using a pneumatic injection method of 2a, with the final injection concentrations of 0.1, 1, 3 , and 11 µM. This was followed by injection of oligomycin (1.5 µM), FCCP (0.6 µM) and rotenone/ antimycin A (0.5 µ M). […]
supplementary information of the following papers. 15-16
The Seahorse XF96 analysis for MRC5 was performed in an identical manner to MDA-MB-231 except that MRC5 cells were seeded at a density of 50,000 cells/well and an FCCP injection concentration of 0.6 µ M was used.
Cell Cycle Analysis. MDA-MB-231 cells were seeded at a density of 2 x 10^5 cells/well in a 6 well clear bottom plate with a final media volume of 2 mL and allowed to adhere overnight 37 °C. Compound 2a was prepared fresh as a stock in DMSO and added at a final concentration of 0.1 µM with a final volume of 2.5 mL. […] These solutions were stored at 4 °C until ready for analysis. […] The samples were then analyzed with FACS. […]

C[N+](C)=C1[S][Au-2]2([S]1)[c]1ccccc1Cc1cccc[n+]12.F[P-](F)(F)(F)(F)F (stereo not drawn) [2a]
Decrease in S phase versus control (24 h): 6% | Increase in G1 cell population versus control (24 h): 10% | G1 phase change over 72 h (72 h): significant increase in G1 phase
